Measurements reported in publication PMC9142922, “Galactosylated Prodrugs: A Strategy to Improve the Profile of Nonsteroidal Anti-Inflammatory Drugs” (Pharmaceuticals, 2022).
Marks after values point to notes of the source that are not given here.

Key:
[1] = Chemical stability in SGF (pH 1.2) and PBS (pH 7.4) at 37 °C; format: physicochemical; details: unmodified incubated compound, 100 µM, PBS pH 7.4, 37 °C, mean ± SD
Description: The concentrations of the galactosylated prodrugs and the parent drugs derived from the prodrugs were quantified using RP-HPLC (Table 2).
A 10 mM solution of each compound (the galactosylated prodrugs and their parent drugs) was added to either simulated gastric fluid (SGF-without pepsin) or phosphate-buffered saline (PBS, 50 mM). The SGF and PBS buffers were prepared as previously described.

[2] = Ex vivo permeation across excised rat small intestine (non-everted intestinal sac); format: in vitro ADME, male Wistar rats; details: compound filled into the sac, 5 mg/Kg in PBS + methocel 3%, 37 °C, 2 h; for Fraction Absorbed (Fa) ± SE, Duodenum: rat duodenum; for Fraction Absorbed (Fa) ± SE, Ileum: rat ileum; for Fraction Absorbed (Fa) ± SE, Jejunum: rat jejunum
Description: The permeability of the galactosylated prodrugs and the parent drugs through the rat small intestine was assessed ex vivo using the non-everted intestinal sac method. Despite some shortcomings (e.g., the interruption of normal blood flow, lack of a nervous system) this test is widely used to investigate the passive absorption of molecules and can provide further data when equipped with a mucus layer, which includes proteins of drug transport and metabolism.
A suspension of the tested compounds (5 mg/Kg in PBS + methocel 3%) was syringed into intestinal sacs that consisted of different segments of rat small intestine (duodenum, jejunum, ileum). The compound-enriched tissues were incubated at 37 °C for 2 h.
In order to verify the presence of the galactosylated compounds in the intestinal tissues, the intestinal sacs were opened at the end of the incubation period, washed with fresh buffer and homogenized in ethanol and the supernatant was dried. The concentrations of the galactosylated prodrugs and the prodrug-derived parent drugs were quantified using RP-HPLC (Figure 3a–d).
An evaluation of ex vivo absorption was carried out using permeation measurements in excised rat small intestines, as previously published, with some modifications. Briefly, male Wistar rats (200–250 g) were anesthetized with isoflurane, decapitated and exsanguinated. Freshly excised rat duodenum, jejunum and ileum tissue was washed with Krebs–Ringer buffer (KRB) and cut into pieces of 4–5 cm. Then, 0.2 mL of a suspension containing the compounds (5 mg/Kg, PBS + Methocel 3%) were syringed into intestinal sacs and the compound-enriched tissues were incubated in oxygenated KRB (10 mL) at 37 °C with smooth shaking. […] Tests were carried out in triplicate for each compound on three intestinal segments from three different rats. The concentration in the incubation buffer was quantified via RP-HPLC, as reported above.
At the end of the incubation period, the intestinal sacs were opened, washed with fresh buffer, homogenized in ethanol (1 mL, UltraTurrax) and centrifuged at 13,000× g for 5 min and the supernatant was dried with nitrogen. After resolubilization in 0.5 mL of methanol, the concentrations of the galactosylated prodrugs and prodrug-derived parent drugs were quantified using RP-HPLC.

[3] = Distribution coefficient n-octanol/PBS pH 7.4, shake-flask; format: physicochemical; details: room temperature, mean ± SD
Text: Lipophilicity is the key physicochemical parameter that influences solubility and various other aspects of the pharmacokinetic and pharmacodynamic profile of drugs. The hydrophilic-lipophilic behavior of galactosylated prodrugs and parent drugs was investigated by measuring the distribution coefficients (log D^pH) in n-octanol-phosphate buffered saline (PBS, pH 7.4) using the shake-flask technique.
Each log D value is an average of a minimum of six measurements.

[4] = test system: NSAID-induced gastric damage in mice; experiment: Ulcerogenicity study (gastric lesion score); format: in vivo, CD1 mice; details: fasted mice, oral, parent 10 mg/kg or equimolecular prodrug, score 0 irritation, 1 lesions 1-2 mm, 2 lesions 2-3 mm, 3 lesions >3 mm; for Gastric Lesion Score (4 h): 4 h after treatment; for Gastric Lesion Score (48 h): 48 h after treatment
Description: NSAID-induced gastric damage in mice was evaluated following the procedure described by Chan et al.. […] The mucosa was then examined by means of a magnifying glass for the presence of irritation or frank hemorrhagic lesions (ulcers). Irritation was assigned a score of 0, and ulcerations were scored according to their length (a score of 1 for lesions with a length between 1 and 2 mm, a score of 2 for lesions with a length between 2 and 3 mm, a score of 3 for lesions greater than 3 mm). The sum of total scores was used for comparison.

[5] = test system: acetic-acid-induced writhing in mice; experiment: Acetic-acid-induced writhing test; format: in vivo, CD1 mice; details: oral IbuGAL 17.8, IndoGAL 14.5, OkyGAL 16.4, FluGAL 16.7 mg/kg; 0.6% acetic acid i.p.; 48 h
Description: The number of acetic-acid-induced abdominal stretches can be evaluated in Figure 3. Control mice received an intraperitoneal injection of 0.6% acetic acid (10 mL/kg). […]
Figure 5 (a–d). Total number of writhing episodes within 20 min after acetic acid injection. […] Data are expressed as means ± S.E.M. of 6 animals. *** p < 0.001, ** p < 0.01 vs. Control.
The acetic-acid-induced writhing test was performed as reported previously. […] The number of abdominal constrictions and extensions of the trunk and hind limbs were counted for each group of mice, starting from 5 min after the injection of acetic acid up to 20 min afterwards, and expressed as the number of writhing episodes.

[6] = Stability in human serum at 37 °C; details: for degradation in human serum in 24 h / Stability at 37 °C, % compound after 24 h of incubation, Human Serum: 37 °C; for half-life at 200 µM: male, human; for Stability at 37 °C, % compound after 24 h of incubation, Human Serum: unmodified incubated compound, 200 µM, mean ± SD
Description: A solution of each compound (10 mM in DMSO) was added to human serum (sterile-filtered from human male AB plasma, USA origin, sterile-filtered, Sigma-Aldrich) and preheated and maintained at 37 °C ± 0.5 °C. Three-hundred microliters of the resulting solutions (200 µM) was withdrawn at appropriate time intervals and added to 300 µL of CH3CN, which contained 0.1% TFA, in order to deproteinize the serum. […] Each clear supernatant was filtered using 0.45 µm PTFE filters (VWR International S.r.l., Milano, Italy) and analyzed via RP-HPLC as described below.
The reverse-phase HPLC procedure allowed the galactosylated prodrugs and their parent drugs to be separated and quantified. […] The analytical column was a ZORBAX Eclipse XDB-C8 (150 × 4.6 mm, 5 µm; Agilent, Santa Clara, CA, USA). The mobile phase consisted of 0.1% aqueous TFA and 0.1% TFA CH3CN 50/50 w/w% at a flow rate of 1.0 mL/min. The injection volume was 20 µL (Rheodyne, Cotati, CA, USA). The column effluent was monitored at 228 nm and 254 nm, referenced against an 800 nm wavelength. The quantitation of compounds was calculated using calibration curves and the linearity of the calibration curves was determined in a concentration range of 1–100 µM (r^2 > 0.99).

[7] = test system: carrageenan-induced paw edema in mice; experiment: Carrageenan-induced paw edema / hyperalgesia; format: in vivo, CD1 mice; details: oral; parent drugs 10 mg/kg, equimolecular IbuGAL 17.8, IndoGAL 14.5, OkyGAL 16.4, FluGAL 16.7 mg/kg
Description: We tested the anti-inflammatory response of the parent drugs and their relative galactosylated prodrugs by subcutaneously injecting λ-carrageenan (1% (w/v) in sterile saline, 20 μL) into the hind paws of mice.
Figure 4 (a–d). […] White circles represent control mice treated with vehicle. […] The increase in paw volume was evaluated and is expressed as the difference in paw volume measured at each time point and the basal paw volume measured immediately before carrageenan injection. Data are expressed as means ± S.E.M. of 6 animals. *** p < 0.001, ** p < 0.01 and […] vs. Control.
Carrageenan-induced paw edema was induced by injecting λ-carrageenan (1% w/v in sterile water, 20 μL) subcutaneously into the hind paws of mice using a 27 gauge needle. […] The increase in paw volume was evaluated using a plethysmometer (Ugo Basile, Milan, Italy) and reported as the difference between the paw volume measured at each time point and the basal paw volume measured immediately before carrageenan injection.

| Stability at 37 °C, % compound after 24 h of incubation, PBS pH 7.4 [1] [%] | Fraction Absorbed (Fa) ± SE, Duodenum [2] | Fraction Absorbed (Fa) ± SE, Ileum [2] | Fraction Absorbed (Fa) ± SE, Jejunum [2] | logD [3] | degradation in human serum in 24 h [6] [%] | half-life at 200 µM [6] [h] | Stability at 37 °C, % compound after 24 h of incubation, Human Serum [6] [%] | Compound | Gastric Lesion Score (4 h) [4] | Gastric Lesion Score (48 h) [4] | writhing responses after 48 h vs control [5] | effect on carrageenan-induced paw edema/hyperalgesia during the first phase (0–6 h) [7] |
| --- | --- | --- | --- | --- | --- | --- | --- | --- | --- | --- | --- | --- |
| 87.3 ± 2.1 | 0.060 ± 0.014 | 0.033 ± 0.008 | 0.031 ± 0.015 | 1.89 ± 0.09 | ~50 | ~24 | 57.3 ± 1.4 | CC(C(=O)OC[C@H]1OC(O)[C@H](O)[C@@H](O)[C@H]1O)c1ccc(-c2ccccc2)c(F)c1 (stereo partly drawn) [FluGAL] | 0 ** | 0.5 | significant decrease | did not change |
| 81.2 ± 2.5 | 0.013 ± 0.006 | 0.031 ± 0.016 | 0.026 ± 0.014 | 1.73 ± 0.04 | ~50 | ~24 | 54.1 ± 2.2 | CC(C)Cc1ccc(C(C)C(=O)OC[C@H]2OC(O)[C@H](O)[C@@H](O)[C@H]2O)cc1 (stereo partly drawn) [IbuGAL] | 0 ** | 1 | significant decrease | did not change |
